{"source": "patent US4666907A", "about": "“Phenothiazine and derivatives and analogs and use as leukotriene biosynthesis inhibitors” (Merck Frosst Canada, Inc., priority 1986, dated 1987)", "key": {"asthmatic rats": {"tested_on": "asthmatic rats", "test": "Asthmatic rat assay (duration of dyspnoea after egg albumin aerosol)", "type": "in vivo", "conditions": "po; for inhibition in vivo at 3 mg/kg: 3 mg/kg p.o.; for inhibition in vivo at 1.5 mg/kg: 1.5 mg/kg p.o.", "source_text": "Rats were obtained from an inbred line of asthmatic rats. Both female and male rats from 200 to 300 g were used.\nEgg albumin (EA), grade V, crystallized and lyophilized, was obtained from Sigma Chemical Co., St. Louis. Bordetella pertussis vaccine, containing 30×10^9 killed bacteria per ml was obtained from the Institut Armand-Frappier, Laval des Rapides, Quebec. Aluminum hydroxide was obtained from the Regeis Chemical Company, Chicago.\nThe challenge and subsequent respiratory recordings were carried out in a clear plastic box with internal dimensions 10×6×4 inches. The top of the box was removable; in use, it was held firmly in place by four clamps and an airtight seal was maintained by a soft rubber gasket. […] A Fleisch No. 0000 pneumotachograph was inserted into one end of the box and coupled to a Grass volumetric pressure transducer (PT5-A) which was then connected to a Beckman Type R Dynograph through appropriate couplers. While aerosilizing the antigen, the outlets were open and the pneumotachograph was isolated from the chamber. The outlets were closed and the pneumotachograph and the chamber were connected during the recording or the respiratory patterns. For challenge, 2 ml of a 3% solution of antigen in saline was placed into each nebulizer and the aerosol was generated with air from a small Potter diaphragm pump operating at 10 psi and a flow of 8 liters/minutes.\nRats were sensitized by injection (s.c.) 1 ml of a suspension containing 1 mg EA and 200 mg aluminum hydroxide in saline. Simultaneously, they received an injection (i.p.) of 0.5 ml of B. pertussis vaccine. They were used between days 14 and 18 postsensitization. In order to eliminate the serotonin component of the response, rats were pretreated intravenously 5 minutes prior to aerosol challenge with […] methylserzide. Rats were then exposed to an aerosol of 3% EA in saline for exactly 1 minute, then their respiratory profiles were recorded for a further 25-30 minutes. The duration of continuous dyspnoea was measured from the respiratory recordings.\nCompounds were generally administered either intraperitoneally 1 hour prior to challenge or orally 11/2 hours prior to challenge. They were either dissolved in dimethylsulfoxide or suspended in 0.1% methocel and 0.5% Tween 80. The volume injected has 2 ml kg^-1 (intraperitoneally) or 10 ml kg^-1 (orally). Prior to oral treatment rats were starved overnight. Their activity was determined in terms of their ability to decrease the duration of symptoms of dyspnoea in comparison with a group of vehicle-treated controls. Usually, a compound was evaluated at a series of doses and an ED50 was determined. This was defined as the dose (mg/kg) which would inhibit the duration of symptoms by 50%."}, "[1]": {"tested_on": "PAF-induced hyperalgesia in Sprague-Dawley rats", "test": "PAF-induced hyperalgesia assay (vocalization threshold, rat paw)", "type": "in vivo", "conditions": "po, read-out: PAF Induced Hyperalgesia Assay % inhibition", "experimental": "Female Sprague-Dawley rats, 35-40 g were fasted overnight. Platelet activating factor, PAF, (L-lecithin B-acetyl O-alkyl) 1 μg/0.1 ml was given by subplantar injection in the rat paw. The compounds to be evaluated were homogenized in aqueous Vehicle (0.9% benzyl alcohol, 0.5% Tween 80 and 0.4% methylcellulose) and administered orally in a volume of 0.1 ml, 30 minutes prior to PAF.\nAnimals were tested 1, 2, 3 and 4 hours after PAF administration. The vocalization threshold, defined as the pressure (mm Hg) needed to evoke a squeak response, was recorded for both the injected and contralateral paw. No animal was subjected to pressure greater than 60 mm Hg. Hyperalgesia is defined as a decrease in vocalization threshold as compared to a normal paw. Percent inhibition of hyperalgesia was calculated as the proportion of animals with vocalization thresholds greater than 200% of controls."}, "[2]": {"tested_on": "Mouse peritoneal macrophages", "test": "Mouse macrophage assay (zymosan-stimulated arachidonic acid metabolites, Leukotriene C4)", "type": "cell-based", "conditions": "mouse peritoneal macrophages, zymosan, read-out: Macrophage IC50", "experimental": "Mouse peritoneal macrophages were treated sequentially with arachidonic acid (labelled with tritium); the compound being evaluated as an inhibitor, and a stimulator (zymosan). Metabolites derived from arachidonic acid (PGE2, 6-Keto PG-F1@ and Leukotriene C4) were separated from the incubation medium by extraction and chromatography, and then quantitated by determining the amount of radioactivity (cpm) associated with each of them. […] (This protocol is identical to that described in the reference except that the radioactivity herein associated with the LTC4 was determined by counting an aliquot of the final aqueous solution directly rather than chromatographing it first).\nReference: Humes, J. L. et al., J. Biol. Chem. 257, 1591-4 (1982)."}, "[3]": {"tested_on": "sensitized guinea pig trachea", "test": "Antigen challenge 'in vitro' assay (egg albumin-induced contraction of sensitized tracheal chains)", "type": "cell-based", "conditions": "Cavia porcellus; for inhibition at 10 µg/mL: at 10 μg/ml, read-out: In Vitro Antigen Challenge % Inhibition", "experimental": "Male guinea pigs weighing 300-350 g were sensitized by injecting (i.p.) 0.5 ml of a suspension containing 0.4 mg of egg albumin (Ovalbumin, Grade V, Sigma Chemical Co.) and 4.0 g aluminum hydroxide in 19.6 ml of saline. Two weeks were permitted for sensitization to occur.\nThree sensitized guinea pigs were stunned and exsanguinated. The tracheas were removed, freed of adhering tissue and divided longitudinally by cutting through the cartilaginous tissue directly opposite the muscle insertion. Each opened trachea was then transected between every second cartilage. Four of the cut sections were tied together, end to end in a series with No. 0.7 silk thread ensuring that the tracheal muscles were all in the same vertical plane. Thus, each chain consisted of tissue from three different animals.\nThe chain so formed was then suspended under 1 g of tension (by silk ties at each end) in a 20 ml organ bath containing 10 ml of modified^1 Krebs-Henseleit buffer solution gassed with 95% O2 and 5% CO2 at 37° C. Mepyramine (0.55 μg/ml) and indomethacin (2.67 μg/ml were added to the buffer to avoid the contribution of histamine receptors and cyclooxygenase products to the contraction. To record responses one end of the tracheal chain was attached to a Gould Statham UC-2 force displacement transducer which was connected to a Beckman Type R-dynograph.The preparations were allowed to equilibrate for one hour during which time the tissues were automatically washed (10 ml volume displacement) ever 6 minutes.\nAfter the equilibration period the tissues were primed with methacholine (3 μg/lml; 1.5×10^-5 M), washed and allowed to recover to baseline. The tissues were treated again with a second dose of methacholine, washed, allowed to return to baseline and washed for an additional hour.\nTwo chains were used as a control. These were incubated in a concentration of egg albumin sufficient to induce an average contraction of 50-80% of the methacholine response.\nEach compound to be tested was added to two other baths (at a final concentration in each bath of 10 μg/ml or lower) 15 minutes prior to challenging the fresh chains with egg albumin.\nThe response of the challenged tissue was expressed as a percentage of the methacholine maximum. The % inhibition for each compound was then calculated. Compounds which at 10 μg/ml (final concentration) inhibited the egg albumin response by 50% or more were retested at a lower concentration."}, "[4]": {"tested_on": "LTB4 formation in rat PMN", "test": "Rat polymorphonuclear leukocyte (P.M.N.) assay, LTB4 formation", "type": "cell-based", "conditions": "A-23187, LTB4", "experimental": "Rats under ether anesthesia are injected (i.p.) with 8 ml of a suspension of sodium caseinate (6 grams in ca. 50 ml water). After 15-24 hours the rats are sacrificed (CO2) and the cells from the peritoneal cavity are recovered by lavage with 20 ml of buffer (Eages MEM containing 30 mM HEPES adjusted to pH 7.4 with NaOH). The cells are pelleted (350×g, 5 min.), resuspended in buffer with vigorous shaking, filtered through lens paper, recentrifuged and finally suspended in buffer at a concentration of […]. A 500 μl aliquot of PMN suspension and test compound are preincubated for 2 minutes at 37° C., followed by the addition of 10 μM A-23187. The suspension is stirred for an additional 4 minutes then bioassayed for LTB4 content by adding an aliquot to a second 500 μl portion of the PMN at 37° C. The LTB4 produced in the first incubation causes aggregation of the second PMN, which is measured as a change in light transmission. The size of the assay aliquot is chosen to give a submaximal transmission change (usually […]) for the untreated control. The percentage inhibition of LTB4 formation is calculated from the ratio of transmission change in the sample to the transmission change in the compound-free control."}}, "data": [{"compound": "O=S1(=O)c2ccccc2Nc2ccc(O)cc21", "values": [{"measurement": "inhibition in vivo at 3 mg/kg", "setting": "asthmatic rats", "value": 70, "unit": "%"}, {"measurement": "responders at 3 mg/kg", "setting": "[1]; 3 mg/kg p.o.", "value": 60, "unit": "%"}]}, {"compound": "O=S1(=O)c2ccccc2Nc2ccc(O)c(Cl)c21", "values": [{"measurement": "inhibition in vivo at 1.5 mg/kg", "setting": "asthmatic rats", "value": 59, "unit": "%"}, {"measurement": "responders at 1.2 mg/kg", "setting": "[1]; 1.2 mg/kg p.o.", "value": 50, "unit": "%"}]}, {"compound": "COc1ccc2c(c1Cl)Sc1cc(F)ccc1N2C", "values": [{"measurement": "inhibition in vivo at 3 mg/kg", "setting": "asthmatic rats", "value": 42, "unit": "%"}]}, {"compound": "COc1ccc2c(c1Cl)[S+]([O-])c1ccccc1N2", "note": "(stereo not drawn)", "values": [{"measurement": "inhibition in vivo at 3 mg/kg", "setting": "asthmatic rats", "value": 56, "unit": "%"}]}, {"compound": "O=S1(=O)c2ccccc2Nc2ccc(O)c(O)c21", "values": [{"measurement": "inhibition in vivo at 1.5 mg/kg", "setting": "asthmatic rats", "value": 65, "unit": "%"}]}, {"compound": "CC(=O)N1c2ccccc2Sc2c1ccc(O)c2Cl", "values": [{"measurement": "inhibition in vivo at 3 mg/kg", "setting": "asthmatic rats", "value": 61, "unit": "%"}]}, {"compound": "CC(=O)Oc1ccc2c(c1Cl)Sc1ccccc1N2C(C)=O", "values": [{"measurement": "inhibition in vivo at 3 mg/kg", "setting": "asthmatic rats", "value": 58, "unit": "%"}]}, {"compound": "COc1ccc2c(c1Cl)Sc1cc(F)ccc1N2C(C)=O", "values": [{"measurement": "inhibition in vivo at 3 mg/kg", "setting": "asthmatic rats", "value": 36, "unit": "%"}]}, {"compound": "COc1ccc2c(c1Cl)[S+]([O-])c1cc(F)ccc1N2C", "note": "(stereo not drawn)", "values": [{"measurement": "inhibition in vivo at 3 mg/kg", "setting": "asthmatic rats", "value": 52, "unit": "%"}]}, {"compound": "COc1ccc2c(c1Cl)Oc1ccccc1N2C", "values": [{"measurement": "inhibition in vivo at 0.3 mg/kg", "setting": "asthmatic rats; 0.3 mg/kg p.o.", "value": 49, "unit": "%"}]}, {"compound": "COc1ccc2c(c1)Sc1c(cc(OC)c(OC(C)=O)c1Br)N2C(C)=O", "values": [{"measurement": "inhibition in vivo at 0.5 mg/kg", "setting": "asthmatic rats; 0.5 mg/kg p.o.", "value": 58, "unit": "%"}, {"measurement": "responders at 0.03 mg/kg", "setting": "[1]; 0.03 mg/kg p.o.", "value": 60, "unit": "%"}]}, {"compound": "COc1ccc2c(c1)Sc1c(cc(OC)c(O)c1Br)N2C(C)=O", "values": [{"measurement": "inhibition in vivo at 1.5 mg/kg", "setting": "asthmatic rats", "value": 78, "unit": "%"}, {"measurement": "responders at 0.1 mg/kg", "setting": "[1]; 0.1 mg/kg p.o.", "value": 60, "unit": "%"}]}, {"compound": "Clc1cccc2c1Sc1ccccc1N2", "note": "[Compound 3]", "values": [{"measurement": "IC50", "setting": "[2]", "value": "0.01 to 0.1", "unit": "µg/mL"}, {"measurement": "inhibition at 10 µg/mL", "setting": "[3]", "value": 37, "unit": "%"}, {"measurement": "IC50", "setting": "[4]", "value": "0.05 to 0.5", "unit": "µg/mL"}]}, {"compound": "Cc1cccc2c1Nc1ccccc1S2", "note": "[Compound 4]", "values": [{"measurement": "IC50", "setting": "[2]", "value": 5, "unit": "µg/mL"}, {"measurement": "inhibition at 10 µg/mL", "setting": "[3]", "value": 76, "unit": "%"}]}, {"compound": "FC(F)(F)c1ccc2c(c1)Nc1ccccc1S2", "note": "[Compound 5]", "values": [{"measurement": "IC50", "setting": "[2]", "value": 0.1, "unit": "µg/mL"}, {"measurement": "inhibition at 10 µg/mL", "setting": "[3]", "value": 7, "unit": "%"}]}, {"compound": "Oc1ccc2c(c1)Sc1ccccc1N2", "note": "[Compound 6]", "values": [{"measurement": "IC50", "setting": "[2]", "value": "0.1 to 1", "unit": "µg/mL"}, {"measurement": "inhibition at 10 µg/mL", "setting": "[3]", "value": 100, "unit": "%"}, {"measurement": "IC50", "setting": "[4]", "value": 0.016, "unit": "µg/mL"}]}, {"compound": "CC(=O)Oc1ccc2c(c1)Sc1ccccc1N2", "note": "[Compound 7]", "values": [{"measurement": "IC50", "setting": "[2]", "value": "0.01 to 0.1", "unit": "µg/mL"}, {"measurement": "inhibition at 10 µg/mL", "setting": "[3]", "value": 60, "unit": "%"}, {"measurement": "IC50", "setting": "[4]", "value": 0.005, "unit": "µg/mL"}]}, {"compound": "CC(=O)c1ccc2c(c1)Nc1ccccc1S2", "note": "[Compound 8]", "values": [{"measurement": "IC50", "setting": "[2]", "value": 0.2, "unit": "µg/mL"}, {"measurement": "inhibition at 10 µg/mL", "setting": "[3]", "value": 60, "unit": "%"}]}, {"compound": "Oc1ccc2c(c1Cl)Sc1ccccc1N2", "note": "[Compound 9]", "values": [{"measurement": "inhibition at 3 µg/mL", "setting": "[3]; at 3 μg/ml", "value": 97, "unit": "%"}, {"measurement": "IC50", "setting": "[4]", "value": 0.005, "unit": "µg/mL"}]}]}
